Test results taken from paper PMC5274652, “Antagonizing Retinoic Acid Receptors Increases Myeloid Cell Production by Cultured Human Hematopoietic Stem Cells” (Archivum Immunologiae et Therapiae Experimentalis, 2016).

Columns and labels:
[1] = tested on: NB-4 cells; test: Differentiation of NB-4 cells (CD11b/CD14 flow cytometry); type: cell-based, human; details: 96 h
Description: (§1) NB-4 and KG1 cells were obtained from the German Resource Center for Biological Material (DSMZ GmbH, Braunschweig, Germany). The cells were grown in RPMI-1640 medium supplemented with 10 % fetal bovine serum (FBS), 100 U/ml penicillin, and 100 µg/ml streptomycin (Sigma, St Louis, MO, USA). Cells were grown at 37 °C in 5 % CO2.
(§2) The expression of differentiation markers at the cell surface was determined by flow cytometry. Differentiation of NB-4 and KG1 cells was measured by staining using the monoclonal antibodies CD11b-FITC and CD14-PE and appropriately labeled isotype controls (all from ImmunoTools, Friesoythe, Germany). Differentiation of human CD34^+ve cells was measured by triple-color staining using various cocktails of phycoerythrin-, fluorescein isothyocyanate-, and PerCP-monoclonal antibodies (from Becton–Dickinson, San Jose, CA, USA). The markers used to identify cell populations were as follows: CD45^+ve leukocytes; CD34^+ve/CD133^+ve HSCs; CD33^+ve/CD13^+ve immature myeloid; CD117^+ve myeloblasts and promyelocytes; CD11b^+ve/CD15^+ve mature myeloid; CD11b^+ve/CD65^+ve neutrophils; CD11b^+ve/CD14^+ve monocytes; glycophorin^+ve A erythroid cells; CD61^+ve megakaryoblasts and platelets; CD2^+ve/CD5^+ve/CD7^+ve T cells and NK cells; CD56^+ve NK cells; CD19^+ve/CD20^+ve B cells; and CD10^+ve B lymphocyte progenitors; and present on mature neutrophils and DR^+ve progenitors and present on mature monocytes. The cells were stained with 1 µl of the fluorescently labeled antibody (or the appropriate control immunoglobulin) for 1 h on ice. Next, they were washed with ice-cold phosphate-buffered saline (PBS) and suspended in 0.5 ml PBS supplemented with 0.1 % bovine serum albumin (Sigma, St Louis, MO, USA) prior to analysis on FACS Calibur flow cytometer (Becton–Dickinson, San Jose, CA, USA). The acquisition parameters were set for an isotype control. Cells were analyzed using a FACSCalibur, and data analysis was performed using the CellQuest Pro software (Becton–Dickinson, San Jose, CA, USA).

[2] = tested on: CD34^+vehuHSC; test: Cell production and lifespan of CD34+ve huHSC-initiated cultures; type: cell-based, human
Description: The cells used were CD34^+ve cells purified from the blood of normal human adult donors and post-mobilization of stem cells to the blood. Cells obtained and purified in this manner are used routinely by the National Blood Service Stem Cell Laboratory in Birmingham for bone marrow transplantation. Ethics approval for the use of adult human blood-mobilized stem cells (CD34^+vehuHSC) was from the West Midlands Research Ethics Committee. Informed consent was obtained by the regional National Blood Service Stem Cell Laboratory in Birmingham. CD34^+ve cells were purified to 99 % CD34^+ve, 97 % CD133^+ve, >99 % lineage^−ve (n = 15) using an anti-CD34 monoclonal antibody, immunomagnetic beads, and a CliniMACS magnetic separator. Purified cells were plated at 5 × 10^5 cells/ml in microtiter wells in 200 μl of either RPMI-1640 medium (R and D Systems, Abingdon, UK) or HPGM^TM hematopoietic growth medium (Lonza, UK) containing either 10 % FBS or 10 % human serum, antibiotics (100 U/ml penicillin and 100 μg/ml streptomycin) and stem cell factor (SCF), interleukin (IL)-3, and granulocyte-colony stimulating factor (G-CSF) (all from R and D Systems Abingdon, UK) as stated in the results. Cultures were fed every 2–3 days (with fresh compound), split into microtiter wells, and then expanded into 2 ml Costar wells to maintain a cell density of between 2.5 and 10 × 10^5 cells/ml. Cells were grown at 37 °C in 5 % CO2. Viable cells were enumerated by phase contrast microscopy (400× magnification).
as §2

[3] = tested on: mice; details: cited from earlier work
[4] = tested on: CD34^+vehuHSCs; test: Week-five CAFC and LTC-IC assays of cultured CD34+ve huHSC; type: cell-based, human; details: 100 nM, cells cultured 2 weeks, two donors
Description: Assays for week-five cobblestone area forming cells (CAFC), long-term culture-initiating cells (LTC-IC), and colony-forming units (CFU) were performed at the Stem Cell Laboratory at the National Blood Service Stem Cell Laboratory using standard procedures and methods, as described by other workers (de […] and Ploemacher [2001]; Denning-Kendall et al. [1996]; Nicol et al. [1996]). CFU assays were performed using Methocult^TM GF H8444 (StemCell Technologies) and in 35 mm petri dishes. The presence of CAFC was scored as the presence of 12 or more closely associated and small cells that were embedded in the MS5 cell feeder layer and blind by an experienced reader. The nature of CFUs, as to colony-forming unit-granulocyte/erythroid/megakaryocyte/monocyte (CFU-GEMM), colony-forming unit-granulocyte/macrophage (CFU-GM), burst-forming unit-erythroid (BFU-E), and colony-forming unit-erythroid (CFU-E), was scored blind at the service by a person who routinely reads colony assays and is accredited. The nature of colonies was confirmed by sampling colonies and staining cytocentrifuged preparations of cells.

[5] = tested on: KG1 cells; test: Differentiation of KG1 cells (CD11b/CD14 flow cytometry); type: cell-based, human; details: 96 h
Description: as §1, §2

[6] = target: T1, human RARα (Homo sapiens, UniProt P10276); test: Competition with [3H]-ATRA binding, nuclear extracts of Sf21 cells expressing RARα; details: nuclear extracts of baculovirus-infected Sf21 cells, read-out: Binding affinity ED50, RARα
T1 construct: made in house
T1 sequence (P10276 1-462): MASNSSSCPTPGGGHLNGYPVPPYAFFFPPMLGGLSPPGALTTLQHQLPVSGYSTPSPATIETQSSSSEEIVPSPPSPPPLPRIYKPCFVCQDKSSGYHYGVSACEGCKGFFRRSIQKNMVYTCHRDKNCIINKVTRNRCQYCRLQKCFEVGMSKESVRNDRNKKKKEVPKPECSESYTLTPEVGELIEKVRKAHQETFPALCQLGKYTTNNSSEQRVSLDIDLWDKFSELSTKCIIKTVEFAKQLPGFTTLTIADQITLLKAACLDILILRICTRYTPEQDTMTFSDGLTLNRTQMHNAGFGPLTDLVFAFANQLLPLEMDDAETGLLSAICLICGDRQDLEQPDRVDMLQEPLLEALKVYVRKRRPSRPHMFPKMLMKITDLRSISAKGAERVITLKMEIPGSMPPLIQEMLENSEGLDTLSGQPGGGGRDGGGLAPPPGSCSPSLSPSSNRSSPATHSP

**Q.** With CCc1ccc(C2=CC(C)(C)Sc3ccc(C#Cc4ccc(C(=O)O)cc4)cc32)cc1 [AGN194310] as the compound, how does the “effect on differentiation of NB-4 cells” value ([1]; 100 nM with 10 nM 1,25D, compared with 1,25D alone) read?
**A.** The value was “did not have an appreciable effect”.

**Q.** What about the “effect on differentiation of NB-4 cells” value ([1]; 100 nM, used alone) of the same compound?
**A.** Its value is “no effect”.

**Q.** And the “cells produced versus control cultures” value ([2]; 10 nM, by day 20, 10 % FBS, SCF, IL-3)?
**A.** Its value is “around fourfold more cells”.

**Q.** What about the “time for which cultures were maintained” value ([2]; 10 nM, 10 % FBS, SCF, IL-3, control cultures expire by day 30) of the same compound?
**A.** The value was ≤ 55 days.

**Q.** What about the “kinetic of cell production compared with 10 nM” value ([2]; 100 nM, data not shown) of the same compound?
**A.** Its value is “almost identical kinetic”.

**Q.** And the “effect on rate of myeloid cell differentiation” value ([2]; CD34+ve huHSC cultures)?
**A.** The value was “did not slow down myeloid cell differentiation”.

**Q.** What about the “prolonged lifespan of cultures” value ([2]; human HSCs supplemented with stem cell factor ± interleukin 3, abstract) of the same compound?
**A.** The value was “up to 55 days”.

**Q.** And the “expansion of granulopoiesis in knockout mice lacking the receptor for G-CSF” value ([3]; G-CSFR knockout mice, ref Chee et al. 2013)?
**A.** Its value is “not seen”.

**Q.** What about the “effect on myeloid cells after administration to mice” value ([3]; mice, ref Walkley et al. 2002, Chee et al. 2013) of the same compound?
**A.** Its value is “increases in myeloid progenitor cells and mature myeloid cells”.

**Q.** What about the “presence of week-five CAFC and LTC-IC” value [4] of the same compound?
**A.** The value was “only present in pan-RAR-antagonized wells”.

**Q.** And the “effect on differentiation of KG1 cells” value ([5]; 100 nM together with 10 nM 1,25D)?
**A.** The value was “no effect”.

**Q.** And the “effect on differentiation of KG1 cells” value ([5]; 100 nM, used alone)?
**A.** Its value is “no effect”.

**Q.** What about the IC50 [6] of the same compound?
**A.** The IC50 was 4.3 nM.
